In patent US20080295189A1, “Construction of Arterial Occlusive Disease Animal Model” (JAPAN HEALTH SCIENCES FOUNDATION, priority 2004, published 2008):

Test system: blood of a crab-eating macaque
Assay: Degree of coagulation of blood with coagulating agents (autologous blood clot formation)
Details: blood in catheter, incubated 24 hours at 37° C., versus blood coagulated alone
Method: As coagulating agents, ADP and thrombin were used to examine the degree of coagulation. ADP was used at concentrations of 30 and 100 μg/ml (without thrombin at both concentrations), and thrombin at concentrations of 0.5 and 10% (w/v) (without ADP at both concentrations). Blood was drawn from the ventral tail artery of a crab-eating macaque, and was placed into a catheter with or without adding a coagulating agent, incubated for 24 hours at 37° C., and then pushed out to observe the condition of coagulation. As control was used a sample to which neither of the coagulating agents was added (blood which was coagulated alone). The results were shown in the left panel of FIG. 3. […] Next, a blood clot which was obtained by incubating blood for 24 hours at 37° C. with 100 μg of ADP and 10% (w/v) of thrombin was immersed in a povidone-iodine solution, followed by X-ray photography. As shown in the right panel of FIG. 3, there was observed a shade corresponding to the blood clot, allowing one to identify the location of a blood clot be means of an X-ray photographic apparatus.

| Molecule | condition of coagulation (ADP 30 and 100 μg/ml without thrombin) | condition of coagulation (thrombin 0.5 and 10% (w/v) without ADP) |
| --- | --- | --- |
| Nc1ncnc2c1ncn2[C@@H]1O[C@H](COP(=O)(O)OP(=O)(O)O)[C@@H](O)[C@H]1O [ADP, adenosine diphosphate] | the higher concentration of ADP, the better coagulation took place | – |
| Thrombin | – | comparable coagulation at both 0.5 and 10% (w/v) |
